What was measured:
human SLC5A8 = molecular target: T1, human SLC5A8 (Homo sapiens, UniProt Q8N695, F251V/V193I); assay: Two-microelectrode voltage clamp of substrate-induced currents in SLC5A8-expressing oocytes; type: cell-based
T1 construct: We amplified the coding region of SLC5A8 mRNA by RT-PCR using human intestinal mRNA as the template; expressed in transfected cells; host or cells: Xenopus laevis oocytes, 50 ng capped cRNA from the pGH19 construct
T1 sequence (Q8N695 1-610 V193I/F251V): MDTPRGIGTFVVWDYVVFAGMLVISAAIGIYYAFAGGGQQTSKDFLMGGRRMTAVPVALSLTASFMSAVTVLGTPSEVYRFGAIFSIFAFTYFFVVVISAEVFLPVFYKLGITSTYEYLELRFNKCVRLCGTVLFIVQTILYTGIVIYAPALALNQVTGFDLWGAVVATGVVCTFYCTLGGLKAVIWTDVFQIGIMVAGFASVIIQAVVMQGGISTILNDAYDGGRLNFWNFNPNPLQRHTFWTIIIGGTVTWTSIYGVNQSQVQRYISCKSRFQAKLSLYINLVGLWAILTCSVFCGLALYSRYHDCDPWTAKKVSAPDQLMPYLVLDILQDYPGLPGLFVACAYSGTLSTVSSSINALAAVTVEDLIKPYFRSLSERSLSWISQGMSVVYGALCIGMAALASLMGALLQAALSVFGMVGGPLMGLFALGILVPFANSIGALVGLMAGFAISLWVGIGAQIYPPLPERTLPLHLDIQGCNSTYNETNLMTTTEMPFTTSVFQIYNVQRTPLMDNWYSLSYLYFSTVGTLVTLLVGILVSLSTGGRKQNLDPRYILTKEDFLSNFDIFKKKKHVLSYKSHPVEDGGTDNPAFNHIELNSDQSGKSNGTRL
Method: The amplified human SLC5A8 cDNA was expressed heterologously in Xenopus oocytes by cRNA injection. Capped cRNA from SLC5A8 cDNA was synthesized using the mMESSAGE mMACHINE kit (Ambion Inc., Austin, Tex.). Mature oocytes (stage 1V or V) from Xenopus laevis were injected with 50 ng cRNA. Uninjected oocytes served as controls. The oocytes were used for uptake and electrophysiological studies 3-6 days after cRNA injection. Uptake of radiolabeled substrates in uninjected and cRNA-injected oocytes was determined as described previously (Fei, Y. J., et al., (1995) Biochemistry 34, 8744-8751).
Eight oocytes were used for each uptake measurement. Electrophysiological studies were performed by the two-microelectrode voltage clamp method (11. Wang, H., Fei, et al., (2000) Am. J. Physiol. 278:C1019-C1030; Inoue, K, et al. (2004) Biochem. J. 378:949-957).
Oocytes were perfused with a NaCl-containing buffer (100 mM NaCl, 2 mM KCl, 1 mM MgCl2, 1 mM CaCl2, 3 mM Hepes, 3 mM Mes, and 3 mM Tris, pH 7.5), followed by the same buffer containing different fatty acids. The membrane potential was clamped at −50 mV. The differences between the steady-state currents measured in the presence and absence of substrates were considered as the substrate-induced currents. To investigate the current-membrane potential (I—V) relationship, step changes in membrane potential were applied, each for a duration of 100 ms in 20-mV increments. The kinetic parameter K0.5 (i.e. the substrate concentration necessary for the induction of half-maxima) current) was calculated by fitting the values of the substrate-induced currents to Michaelis-Menten equation. The Na^+-activation kinetics was analyzed by measuring the substrate-specific currents in the presence of increasing concentrations of Na^+. The data were analyzed by the Hill equation to determine the Hill coefficient (h; the number of Na^+ ions involved in the activation process). The kinetic parameters were determined using the computer program Sigma Plot, version 6.0 (SPSS, Inc., Chicago, Ill.). Electrophysiological measurements of substrate-induced currents were repeated at least four times with separate oocytes. The data are presented as means±S.E. of these replicates.
The charge-to substrate transfer ratio was determined for propionate in four different oocytes as described previously (Wang, H., et al. (2000) Am. J. Physiol. 278:C1019-C1030 12. Inoue, K., Fei, Y. J., Zhuang, L., Gopal, E., Miyauchi, S., and Ganapathy, V. (2004) Biochem. J. 378:949-957). The oocytes were perfused with 25 μM propionate (unlabeled plus radiolabeled propionate), and inward currents were monitored over a period of 8-10 min. At the end of the experiment, the amount of propionate transported into the oocytes was calculated by measuring the radioactivity associated with the oocytes. The area within the curve describing the relationship between the time and inward current was integrated to calculate the charge transferred into the oocyte during incubation with propionate. The values for substrate transfer and charge transfer were used to determine the charge to substrate transfer ratio.

[1] = tested on: MCF7 cells transfected with SMCT1 cDNA; assay: Colony formation assay in MCF7 cells transfected with SMCT1 cDNA; type: cell-based, human; details: SMCT1-expressing MCF7 cells

## CC(=O)O [acetate]
Human SLC5A8; 5 mM, -50 mV
  Relative magnitude of substrate-induced currents: intermediate
Human SLC5A8; four oocytes
  K0.5 for SLC5A8: 2.46 ± 0.89 mM
[1]
  Effect on cell growth / apoptosis: no effect on cell growth
